Laboratory results reported in article PMC12083526, “Capturing structural intermediates in an animal-like cryptochrome photoreceptor by time-resolved crystallography” (Science Advances, 2025).

Key:
[1] = target: T1, CraCRYΔCTE (CraCRY; animal-like cryptochrome, aCRY) (Chlamydomonas reinhardtii, UniProt A8J8W0); assay: serial femtosecond crystallography (room temperature); settings: crystals reduced with 50 mM DTT and white light, anaerobic; FAD-binding site
T1 construct: gene CHLRE_06g278251v5; C-terminal extension E496-E595 replaced by a His tag; pET28a-based; E. coli BL21(DE3); PHR domain plus helix α22
T1 sequence (A8J8W0 entry or part of it, stated change not applied): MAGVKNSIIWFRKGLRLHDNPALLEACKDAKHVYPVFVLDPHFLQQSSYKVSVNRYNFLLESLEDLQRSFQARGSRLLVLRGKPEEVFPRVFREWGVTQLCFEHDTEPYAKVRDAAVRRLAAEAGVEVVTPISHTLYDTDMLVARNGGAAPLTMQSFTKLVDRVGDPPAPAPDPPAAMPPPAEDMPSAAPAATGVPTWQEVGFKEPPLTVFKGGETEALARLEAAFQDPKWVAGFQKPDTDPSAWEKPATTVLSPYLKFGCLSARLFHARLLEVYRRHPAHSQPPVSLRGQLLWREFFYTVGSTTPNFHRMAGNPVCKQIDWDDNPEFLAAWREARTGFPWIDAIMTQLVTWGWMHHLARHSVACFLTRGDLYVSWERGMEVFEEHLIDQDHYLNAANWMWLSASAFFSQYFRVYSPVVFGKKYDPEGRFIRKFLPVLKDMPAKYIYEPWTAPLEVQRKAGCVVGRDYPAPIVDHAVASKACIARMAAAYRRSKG

[2] = target: T2, CraCRYΔCTE (CraCRY; animal-like cryptochrome, aCRY) (Chlamydomonas reinhardtii, UniProt A8J8W0, E384Q); assay: steady-state photoreduction, UV/Vis absorption; type: binding; settings: white light on ice, aerobic, no external reductant; 20 mM phosphate, 500 mM NaCl, 10% glycerol, pH 5.5-8.5
T2 construct: gene CHLRE_06g278251v5; C-terminal extension E496-E595 replaced by a His tag; pET28a-based; E. coli BL21(DE3); PHR domain plus helix α22
T2 sequence (A8J8W0 entry or part of it E384Q): as the sequence (A8J8W0 entry or part of it, stated change not applied) above, with E384Q counted along it

SMILES	serial femtosecond crystallography (room temperature) [1]	steady-state photoreduction, UV/Vis absorption [2]
Cc1cc2c(cc1C)N(C[C@H](O)[C@H](O)[C@H](O)COP(=O)(O)OP(=O)(O)OC[C@H]1O[C@@H](n3cnc4c(N)ncnc43)[C@H](O)[C@@H]1O)c1[nH]c(=O)[nH]c(=O)c1N2 [FADH^−]	CraCRY structures in FADox and FADH^− states at room temperature are almost identical	–
Cc1cc2nc3c(=O)[nH]c(=O)nc-3n(C[C@H](O)[C@H](O)[C@H](O)COP(=O)(O)OP(=O)(O)OC[C@H]3O[C@@H](n4cnc5c(N)ncnc54)[C@H](O)[C@@H]3O)c2cc1C [FADox, flavin adenine dinucleotide]	–	E384Q is inefficient to generate the neutral radical FADH^• at physiological pH
